Each block holds one sequence with its values, some of them ahead of it. No end group written: not given here.
Columns and labels:
[1] = target: T1, reverse transcriptase (RT) of human immunodeficiency virus-1 (HIV-1) (Human immunodeficiency virus type 1 group M subtype B, UniProt P04585); assay: HIV-RT activity assay (primer tRNALys3 elongation on viral genome RNA, autoradiography); format: biochemical; conditions: for IC50: 50% suppression concentrations against RT, 50 ng HIV-RT, 37° C., 15 minutes; for suppressing activity against RT activity: result in words
T1 construct: reverse transcriptase (abbreviated as RT hereinafter)
Excerpt: Complementary peptides against peptides at each site of reverse transcriptase (abbreviated as RT hereinafter) of a pathogenic virus of AIDS, human immunodeficiency virus-1 (HIV-1), were automatically designed using an analysis program (MIMETIC), and the peptides shown in Table 1 were designed. The designed peptides were synthesized by a conventional solid phase method by allowing 9-fluorenylmethoxycarbonyl (Fmoc) amino acids to sequentially bind using a peptide synthesizer (trade name: AMS 422 Multiple Peptide Synthesizer, manufactured by ABiMED Co.). The synthesized peptide was released from the solid support by a conventional method, and protective groups were removed. The peptide obtained was recovered by ether precipitation, and was purified with reversed phase HPLC after removing ether by drying. A culture supernatant of PLB cells (established human lymphocyte strain) infected with HIV-1 was placed on a top layer of layered 65% and 15% sucrose solutions in a ultracentrifuge tube, and HIV-1 particles were retrieved by ultracentrifugation for 1 hour at 26,500 rpm. Virus RNA was extracted by a guanidine isothiocyanate method (Chomezynski, P. and Sacchi, N., RNA Isolation from Cultured cells, Analytical Biochemistry, 162: 156-159, 1987), and the extract was used by dissolving in 5 mM Tris buffer (pH 7.5). The amount of the whole length virus genome RNA contained in the total RNA sample was quantified according to a conventional ribonuclease protection method (Kaye, J. F. et al., Cis-acting Sequences Involved in Human Immunodeficiency Virus Type 1 RNA Packaging, J. Virol, 69: 6588-6592, 1995; and Huang, Y. et al., The Role of Nucleocapsid and U5 stem/A rich Loop Sequences in tRNA (3Lys) Genomic Placement and Initiation of Reverse Transcription in Human Immunodeficiency Virus Type 1, J. Virol., 72: 3907-3915, 1997). The virus genome binds to tRNA^Lys3 in the cell, and can be used for measuring RT activity. The RNA genome of about 5×10^7 molecules was allowed to react with 50 ng of HIV-RT, 10 units of […] and dNTP's (deoxynucleic acid) at 37° C. for 15 minutes in 20 μl of RTbuffer (50 mMTris-HCl, pH 7.5, 60 mM KCl, 3 mM MgCl2 and 10 mM DTT). The sequence at the tip of the molecule comprises six bases of CTGCTA. One base was added to tRNA^Lys3 using ^32P-dCTP with a radioactivity of 5 μci, and 6 bases were further added by allowing 0.2 mM of dCTP, 0.2 mM of dTTP, 5 μCi of ^32p-dGTP and 0.05 mM of ddATP to react. The elongated primer was retrieved by ethanol precipitation, and was analyzed by auto-radiography through electrophoresis on 6% polyacrylamide gel containing 7 M urea.

[2] = target: T2, Pro-carboxypeptidase R (ProCPR) (Homo sapiens, UniProt Q96IY4); assay: Activation of ProCPR to CPR by thrombin-thrombomodulin (T/TM) complex, hippuryl-L-arginine substrate; format: biochemical; conditions: 1 μM of peptide
T2 sequence (Q96IY4 23-423 limits assumed): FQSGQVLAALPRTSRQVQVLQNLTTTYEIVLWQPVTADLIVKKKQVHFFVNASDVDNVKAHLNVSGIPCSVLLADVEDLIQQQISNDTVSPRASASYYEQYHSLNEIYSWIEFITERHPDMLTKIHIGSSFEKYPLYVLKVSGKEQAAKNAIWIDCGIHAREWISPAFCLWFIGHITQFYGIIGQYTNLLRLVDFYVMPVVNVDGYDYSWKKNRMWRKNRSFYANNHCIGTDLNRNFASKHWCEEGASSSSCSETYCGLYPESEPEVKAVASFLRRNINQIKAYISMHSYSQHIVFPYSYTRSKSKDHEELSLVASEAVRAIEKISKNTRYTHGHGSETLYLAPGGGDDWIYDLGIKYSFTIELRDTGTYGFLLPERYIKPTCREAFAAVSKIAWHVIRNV
Excerpt: Pro-carboxypeptidase R (abbreviated as ProCPR hereinafter) is converted into active carboxypeptidase R (abbreviated as CPR hereinafter) by trimming a sequence from an amino terminal to arginine 92 with a trypsin-like enzyme such as thrombin and plasmin. A complementary peptide corresponding to the amino acid sequence comprising 30, 24, 20, 15 or 11 amino acids from amino acid 87 counted from the amino terminal of the ProCPR was automatically designed using the analysis program MIMETIC of the invention, and the peptides shown in Table 2 were designed. An action on the activation reaction of ProCPR by a thrombin-thrombomodulin complex (abbreviated as T/TM complex hereinafter) was analyzed with respect to the peptides (the peptides in notes (1) and (2) in Table 2) comprising 20 and 15 amino acids of the complementary peptides described above. The designed peptides were synthesized by a conventional solid state method by which 9-fluorenylmethoxycarbonyl (Fmoc) amino acids are sequentially linked using a peptide synthesizer (trade name: AMS 422 Multiple Peptide Synthesizer, manufactured by ABiMED Co.) The synthesized peptide was released by a conventional method, and protecting groups were removed. The peptide obtained was retrieved by ether precipitation, and was purified by reversed phase HPLC after removing ether by drying. The purified peptides comprising 20 and 15 amino acids were allowed to react with ProCPR for 10 minutes at room temperature, followed by allowing the T/TM complex to react. After a reaction for 45 minutes at 37° C. by adding hippuril-L-arginine which is substrate of CPR, free hippuric acid was measured according to a reported method (Komura, H., et al., Effect of Anticoagulants in Colorimetric Assay for Basic Carboxypeptidase, Microbiol. Immunol., 46: 115-117, 2002). When 20-mer peptide and 15-mer peptide were added, activation of ProCPR to CPR with the T/TM complex was suppressed by adding 1 μM of respective peptides. […]

ProCPR [3] = target: T3, ProCPR (Homo sapiens, UniProt Q96IY4); assay: Plate ELISA: VGG-coated plate, human plasma containing ProCPR, biotin-labeled 10G1 antibody; format: binding; conditions: plate coated with VGG, diluted human plasma
T3 construct: diluted human plasma containing ProCPR; from tissue; host or cells: human plasma
T3 sequence (Q96IY4 115-423): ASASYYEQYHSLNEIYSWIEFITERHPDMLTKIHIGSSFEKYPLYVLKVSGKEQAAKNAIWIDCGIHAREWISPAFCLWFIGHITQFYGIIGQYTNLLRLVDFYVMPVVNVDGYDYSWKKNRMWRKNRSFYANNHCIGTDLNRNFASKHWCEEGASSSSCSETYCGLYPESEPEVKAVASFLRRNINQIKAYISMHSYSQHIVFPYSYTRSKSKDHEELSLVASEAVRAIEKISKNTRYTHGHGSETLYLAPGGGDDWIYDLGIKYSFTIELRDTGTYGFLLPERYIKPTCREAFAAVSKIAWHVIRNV
Protocol: After coating the plate with VGG and washing the plate, diluted human plasma containing ProCPR was added to the plate and was allowed to react for 1 hour at room temperature. After removing excess plasma by washing the plate, 10G1 as a […] was added followed by allowing it to react for 1 hour at room temperature. Excess 10G1 antibody was removed by washing the plate, and remaining 10G1 antibody was allowed to react by adding peroxidase-labeled avidin. After removing unreacted avidin by washing, the reaction solution was made to develop a color by a conventional method depending on the strength of the enzyme reaction of peroxidase by adding a peroxidase color development reagent, and the intensity of the color was measured with a plate reader.

ProCPR [4] = target: T4, ProCPR (Homo sapiens, UniProt Q96IY4); assay: Surface plasmon resonance analyzer (Biacore) reactivity to ProCPR; format: binding
T4 sequence (Q96IY4 23-423 limits assumed): T2 sequence (Q96IY4 23-423 limits assumed)

[5] = target: T5, HIV transcriptase (HIV-RT) (Human immunodeficiency virus type 1 group M subtype B, UniProt P04585); assay: Sandwich ELISA detecting HIV-RT with complementary peptides as artificial antibody peptides; format: binding; conditions: wells coated with ESLA 2340, detection with biotin-labeled TLMA 2993 and peroxidase-labeled avidin
T5 construct: reverse transcriptase (abbreviated as RT hereinafter)
Protocol: Wells of a 96 well plate were coated with ESLA 2340 in advance. After adding a diluted solution of HIV-RT in each well and allowing the plate to stand overnight at 4° C., the plate was washed and biotin-labeled TLMA 2993 was added to each well. The plate was allowed to stand for 1 hour at room temperature. After washing the plate again, peroxidase-labeled avidin was added to allow it to react at room temperature for 1 hour. After washing the plate to remove unreacted avidin, a color development reaction was performed by a conventional method at room temperature by adding a color developing reagent of peroxidase.

Sequence: PSTWPTFLKFQLK [PSTW1594, PSTWPTFLKFQLK]
- IC50 [1]: 15 µM

Sequence: VSRGRRRDRRILMII [15-mer peptide, complementary (mimetic) peptide to ProCPR positions 87-101]
- suppression of activation of ProCPR to CPR with the T/TM complex [2]: suppressed

- suppression of activation of ProCPR to CPR with the T/TM complex ([2]; listed as 20-mer peptide): suppressed
- reactivity to ProCPR by surface plasmon resonance (ProCPR [4]): confirmed to be reactive to ProCPR
Sequence: VGGRRTRARRVLLLVLTETH [complementary (mimetic) peptide to ProCPR positions 87-106]
- color development depending on concentration of plasma containing ProCPR (ELISA) (ProCPR [3]): color was developed depending on the concentration of the plasma
- suppression of activation of ProCPR to CPR with the T/TM complex [2]: confirmed to suppress activation of ProCPR

Sequence: ESLALYKSLQQSEMLLELEL [ESLA2340]
- IC50 [1]: 17 µM
- suppressing activity against RT activity [1]: confirmed to suppress the activity of transcriptase
- color development depending on concentration of HIV-RT (sandwich ELISA) [5]: A color was developed depending on the concentration of HIV-RT

Sequence: TLMALELKGKLLLAGLAPSAFLPLSFPEL [TLMA2993]
- IC50 [1]: 15 µM
- suppressing activity against RT activity [1]: confirmed to suppress the activity of transcriptase
- color development depending on concentration of HIV-RT (sandwich ELISA) [5]: A color was developed depending on the concentration of HIV-RT

From US20060275826A1, “Artificial antibody comprising complementary peptide” (priority 2003, published 2006)
